Patent US8124601B2, “Compounds for the treatment of Hepatitis C” (Bristol-Myers Squibb Company, priority 2007, dated 2012)
Where two headings read alike, the source gives them in different places.

Tests used:
HCV NS5B = molecular target: T1, HCV NS5B (Hepatitis C virus genotype 1b, UniProt Q9WMX2); experiment: Modified HCV NS5B RdRp enzyme assay (preincubation protocol); format: biochemical
T1 construct: The protein was expressed with an 18 amino acid C-terminal truncation to enhance the solubility; made in house; host or cells: E. coli BL21(DE3)
T1 sequence (Q9WMX2 2420-2992): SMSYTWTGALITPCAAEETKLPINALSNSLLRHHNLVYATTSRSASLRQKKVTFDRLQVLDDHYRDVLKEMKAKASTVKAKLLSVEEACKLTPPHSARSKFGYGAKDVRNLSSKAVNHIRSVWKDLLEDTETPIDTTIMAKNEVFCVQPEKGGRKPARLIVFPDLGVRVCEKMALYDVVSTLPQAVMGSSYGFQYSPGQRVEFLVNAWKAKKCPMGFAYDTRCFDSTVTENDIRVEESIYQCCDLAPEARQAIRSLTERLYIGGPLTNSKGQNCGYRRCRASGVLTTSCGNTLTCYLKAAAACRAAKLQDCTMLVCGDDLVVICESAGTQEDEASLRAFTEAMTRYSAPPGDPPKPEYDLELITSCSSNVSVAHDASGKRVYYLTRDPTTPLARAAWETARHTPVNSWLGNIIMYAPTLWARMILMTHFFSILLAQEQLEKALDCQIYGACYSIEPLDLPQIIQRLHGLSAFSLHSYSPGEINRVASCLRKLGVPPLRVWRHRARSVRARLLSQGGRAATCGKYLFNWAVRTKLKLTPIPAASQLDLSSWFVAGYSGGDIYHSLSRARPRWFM
Procedure: HCV NS5B RdRp cloning, expression, and purification. The cDNA encoding the NS5B protein of HCV, genotype 1b, was cloned into the pET21a expression vector. The protein was expressed with an 18 amino acid C-terminal truncation to enhance the solubility. The E. coli competent cell line BL21(DE3) was used for expression of the protein. Cultures were grown at 37° C. for ˜4 hours until the cultures reached an optical density of 2.0 at 600 nm. The cultures were cooled to 20° C. and induced with 1 mM IPTG. Fresh ampicillin was added to a final concentration of 50 μg/ml and the cells were grown overnight at 20° C.
Cell pellets (3 L) were lysed for purification to yield 15-24 mgs of purified NS5B. The lysis buffer consisted of 20 mM Tris-HCl, pH 7.4, 500 mM NaCl, 0.5% triton X-100, 1 mM DTT, 1 mM EDTA, 20% glycerol, 0.5 mg/ml lysozyme, 10 mM MgCl2, 15 ug/ml deoxyribonuclease I, and Complete TM protease inhibitor tablets (Roche). After addition of the lysis buffer, frozen cell pellets were resuspended using a tissue homogenizer. To reduce the viscosity of the sample, aliquots of the lysate were sonicated on ice using a microtip attached to a Branson sonicator. The sonicated lysate was centrifuged at 100,000×g for 1 hr at 4° C. and filtered through a 0.2 μm filter unit (Corning).
The protein was purified using two sequential chromatography steps: Heparin sepharose CL-6B and polyU sepharose 4B (Pharmacia). The chromatography buffers were identical to the lysis buffer but contained no lysozyme, deoxyribonuclease I, MgCl2 or protease inhibitor and the NaCl concentration of the buffer was adjusted according to the requirements for charging the protein onto the column. Each column was eluted with a NaCl gradient which varied in length from 5-50 column volumes depending on the column type. After the final chromatography step, the resulting purity of the enzyme is >90% based on SDS-PAGE analysis. The enzyme was aliquoted and stored at −80° C.
Standard HCV NS5B RdRp enzyme assay. HCV RdRp genotype 1b assays were run in a final volume of 60 μl in 96 well plates (Corning 3600). The assay buffer is composed of 20 mM Hepes, pH 7.5, 2.5 mM KCl, 2.5 mM MgCl2, 1 mM DTT, 1.6 U RNAse inhibitor (Promega N2515), 0.01 mg/ml BSA (Sigma B6917), and 2% glycerol. All compounds were serially diluted (3-fold) in DMSO and diluted further in water such that the final concentration of DMSO in the assay was 2%. HCV RdRp genotype 1b enzyme was used at a final concentration of 28 nM. A polyA template was used at 6 nM, and a biotinylated oligo-dT12 primer was used at 180 nM final concentration. Template was obtained commercially (Amersham 27-4110). Biotinylated primer was prepared by Sigma Genosys. 3H-UTP was used at 0.6 μCi (0.29 μM total UTP). Reactions were initiated by the addition of enzyme, incubated at 30° C. for 60 min, and stopped by adding 25 μl of 50 mM EDTA containing SPA beads (4 μg/μl, Amersham RPNQ 0007). Plates were read on a Packard Top Count NXT after >1 hr incubation at room temperature.
Modified HCV NS5B RdRp enzyme assay. A modified enzyme assay was performed essentially as described for the standard enzyme assay except for the following: The biotinylated oligo dT12 primer was precaptured on streptavidin-coated SPA beads by mixing primer and beads in assay buffer and incubating at room temperature for one hour. Unbound primer was removed after centrifugation. The primer-bound beads were resuspended in 20 mM Hepes buffer, pH 7.5 and used in the assay at final concentrations of 20 nM primer and 0.67 μg/μl beads. Order of addition in the assay: enzyme (1.75 nM) was added to diluted compound followed by the addition of a mixture of template (0.36 nM), 3H-UTP (0.6 μCi, 0.29 μM), and primer-bound beads, to initiate the reaction; concentrations given are final. Reactions were allowed to proceed for 4 hours at 30° C.
IC50 values for compounds were determined using seven different [I]. […]

HCV replicon cells = experiment: HCV replicon FRET assay; format: cell-based
Procedure: FRET Assay Preparation. The HCV FRET screening assay was performed in 96-well cell culture plates. The FRET peptide (Anaspec, Inc.) (Taliani et al., Anal. Biochem. 1996, 240, 60-67) contains a fluorescence donor, EDANS, near one end of the peptide and an acceptor, DABCYL, near the other end. The fluorescence of the peptide is quenched by […] resonance energy transfer (RET) between the donor and the acceptor, but as the NS3 protease cleaves the peptide the products are released from RET quenching and the fluorescence of the donor becomes apparent. The assay reagent was made as follows: 5× cell Luciferase cell culture lysis reagent from Promega (#E153A) diluted to 1× with dH2O, NaCl added to 150 mM final, the FRET peptide diluted to 20 μM final from a 2 mM stock.
To prepare plates, HCV replicon cells, with or without a Renilla luciferase reporter gene, were trypsinized and plated in a 96-well plate with titrated test compounds added in columns 3 through 12; columns 1 and 2 contained a control compound (HCV control inhibitor), and the bottom row contained cells with DMSO only. The plates were then placed in a CO2 incubator at 37° C.
Assays. Subsequent to addition of the test compounds described above (FRET Assay Preparation), at various times the plate was removed and Alamar blue solution (Trek Diagnostics, #00-100) was added to measure cellular toxicity. After reading in a Cytoflour 4000 instrument (PE Biosystems), plates were rinsed with PBS and then used for FRET assay by the addition of 30 ul of the FRET peptide assay reagent described above (FRET Assay Preparation) per well. The plate was then placed into the Cytoflour 4000 instrument which had been set to 340 excite/490 emission, automatic mode for up to 20 cycles and the plate read in a kinetic mode. Typically, the signal to noise using an endpoint analysis after the reads was at least three-fold. Alternatively, after Alamar blue reading, plates were rinsed with PBS, then used for luciferase assay using the Promega Dual-Glo Luciferase Assay System or the Promega EnduRen Live Cell Substrate assay.
Compound analysis was performed by quantification of the relative HCV replicon inhibition and the relative cytotoxicity values. To calculate cytoxicity values, the average Alamar Blue fluorescence signals from the control wells were set as 100% non-toxic. The individual signals in each of the compound test wells were then divided by the average control signal and multiplied by 100% to determine […]. To calculate the HCV replicon inhibition values, an average background value was obtained from the two wells containing the highest amount of HCV control inhibitor at the end of the assay period. These numbers were similar to those obtained from naïve Huh-7 cells. The background numbers were then subtracted from the average signal obtained from the control wells and this number was used as 100% activity. The individual signals in each of the compound test wells were then divided by the averaged control values after background subtraction and multiplied by 100% to determine percent activity. EC50 values were calculated as the concentration which caused a 50% reduction in FRET or luciferase activity. The two numbers generated for the compound plate, percent cytoxicity and percent activity, were used to determine compounds of interest for further analysis.

Compound	IC50 (HCV NS5B) [nM]	EC50 (HCV replicon cells; Hepatitis C virus) [nM]	EC50 (HCV replicon cells) [nM]
COc1ccc2c(c1)C1CC1(C(=O)N1CCNC3(CCCC3)C1)Cn1c-2c(C2CCCCC2)c2ccc(C(=O)NS(=O)(=O)C(C)C)cc21 (centres unmarked)	4.58 to 500	4.58 to 500	
COc1ccc2c(c1)C1CC1(C(=O)N1CCC3(CCCN3C(C)=O)CC1)Cn1c-2c(C2CCCCC2)c2ccc(C(=O)NS(=O)(=O)C(C)C)cc21 (centres unmarked)	4.58 to 500	4.58 to 500	
COc1ccc2c(c1)C1CC1(C(=O)N1CCCC3(CCN(C)C3=O)C1)Cn1c-2c(C2CCCCC2)c2ccc(C(=O)NS(=O)(=O)C(C)C)cc21 (centres unmarked) [drawing 22]	4.58 to 500		4.58 to 500
COc1ccc2c(c1)C1CC1(C(=O)N1CCCC3(CCN(C)C3)C1)Cn1c-2c(C2CCCCC2)c2ccc(C(=O)NS(=O)(=O)C(C)C)cc21 (centres unmarked) [drawing 24]	4.58 to 500		4.58 to 500
CCCS(=O)(=O)NC(=O)c1ccc2c(C3CCCCC3)c3n(c2c1)CC1(C(=O)N2CCCC4(CCN(C)C4)C2)CC1c1cc(OC)ccc1-3 (centres unmarked) [drawing 25]	4.58 to 500	4.58 to 500	
CCCS(=O)(=O)NC(=O)c1ccc2c(C3CCCCC3)c3n(c2c1)CC1(C(=O)N2CCC4(CCCN4C(=O)OC(C)(C)C)CC2)CC1c1cc(OC)ccc1-3 (centres unmarked)	4.58 to 500	4.58 to 500	
COc1ccc2c(c1)C1CC1(C(=O)N1CCC3(CCCN3C(=O)OC(C)(C)C)CC1)Cn1c-2c(C2CCCCC2)c2ccc(C(=O)NS(=O)(=O)C(C)C)cc21 (centres unmarked)	4.58 to 500	4.58 to 500	
CCCS(=O)(=O)NC(=O)c1ccc2c(C3CCCCC3)c3n(c2c1)CC1(C(=O)N2CCC4(CCCN4)CC2)CC1c1cc(OC)ccc1-3 (centres unmarked)	4.58 to 500	4.58 to 500	
COc1ccc2c(c1)C1CC1(C(=O)N1CCC3(CCNC3)C1)Cn1c-2c(C2CCCCC2)c2ccc(C(=O)NS(=O)(=O)C(C)C)cc21 (centres unmarked)	4.58 to 500	4.58 to 500	
CCCS(=O)(=O)NC(=O)c1ccc2c(C3CCCCC3)c3n(c2c1)CC1(C(=O)N2CCCC4(CCN(C)C4)C2)CC1c1cc(OC)ccc1-3 (centres unmarked) [drawing 26]	4.58 to 500		4.58 to 500
CCCS(=O)(=O)NC(=O)c1ccc2c(C3CCCCC3)c3n(c2c1)CC1(C(=O)N2CCC4(CCCN4C)CC2)CC1c1cc(OC)ccc1-3 (centres unmarked)	4.58 to 500	4.58 to 500	
COc1ccc2c(c1)C1CC1(C(=O)N1CCCC3(CCN(C)C3=O)C1)Cn1c-2c(C2CCCCC2)c2ccc(C(=O)NS(=O)(=O)C3CC3)cc21 (centres unmarked)	4.58 to 500	4.58 to 500	
CCCS(=O)(=O)NC(=O)c1ccc2c(C3CCCCC3)c3n(c2c1)CC1(C(=O)N2CCN(C)C4(CCCC4)C2)CC1c1cc(OC)ccc1-3 (centres unmarked)	4.58 to 500	4.58 to 500	
